# Source: ChEMBL document CHEMBL1138658, “Novel 2-aminotetralin and 3-aminochroman derivatives as selective serotonin 5-HT7 receptor agonists and antagonists” (J Med Chem, 2004)
# How the values were obtained:
# [1] = target: T1, Adrenergic receptor alpha-1 (Rattus norvegicus, UniProt P15823+P23944+P43140); test: Inhibition of [3H]prazosin binding to rat cortex Alpha 1 receptor
# T1 sequence (P15823 whole entry): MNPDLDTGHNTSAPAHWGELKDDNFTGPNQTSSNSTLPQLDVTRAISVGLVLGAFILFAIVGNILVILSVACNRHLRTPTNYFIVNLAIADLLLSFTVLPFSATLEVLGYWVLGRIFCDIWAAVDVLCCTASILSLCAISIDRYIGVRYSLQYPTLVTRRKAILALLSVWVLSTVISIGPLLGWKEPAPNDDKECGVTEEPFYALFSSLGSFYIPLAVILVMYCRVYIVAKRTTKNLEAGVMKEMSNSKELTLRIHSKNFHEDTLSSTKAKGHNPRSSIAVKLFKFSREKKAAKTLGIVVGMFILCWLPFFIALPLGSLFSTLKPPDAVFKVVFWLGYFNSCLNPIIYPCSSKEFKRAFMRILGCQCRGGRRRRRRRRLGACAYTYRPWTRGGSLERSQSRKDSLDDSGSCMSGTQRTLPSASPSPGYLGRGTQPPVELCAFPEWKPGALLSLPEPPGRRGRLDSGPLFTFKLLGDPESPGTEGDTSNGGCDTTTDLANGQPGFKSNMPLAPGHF
# T1 sequence (P23944 whole entry): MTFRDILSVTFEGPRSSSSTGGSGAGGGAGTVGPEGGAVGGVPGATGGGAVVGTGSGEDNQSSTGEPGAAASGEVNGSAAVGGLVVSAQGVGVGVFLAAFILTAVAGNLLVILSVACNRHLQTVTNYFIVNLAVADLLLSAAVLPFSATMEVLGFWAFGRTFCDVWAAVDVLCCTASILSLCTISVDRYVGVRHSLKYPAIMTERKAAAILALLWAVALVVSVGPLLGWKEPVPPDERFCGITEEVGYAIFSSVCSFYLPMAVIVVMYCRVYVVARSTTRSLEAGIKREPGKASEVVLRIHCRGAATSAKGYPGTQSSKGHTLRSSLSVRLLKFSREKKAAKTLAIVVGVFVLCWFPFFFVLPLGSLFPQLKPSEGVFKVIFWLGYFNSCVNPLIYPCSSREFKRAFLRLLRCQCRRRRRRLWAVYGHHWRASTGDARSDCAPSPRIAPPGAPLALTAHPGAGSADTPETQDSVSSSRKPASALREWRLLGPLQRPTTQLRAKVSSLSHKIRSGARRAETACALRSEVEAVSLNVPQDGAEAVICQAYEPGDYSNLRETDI
# T1 sequence (P43140 whole entry): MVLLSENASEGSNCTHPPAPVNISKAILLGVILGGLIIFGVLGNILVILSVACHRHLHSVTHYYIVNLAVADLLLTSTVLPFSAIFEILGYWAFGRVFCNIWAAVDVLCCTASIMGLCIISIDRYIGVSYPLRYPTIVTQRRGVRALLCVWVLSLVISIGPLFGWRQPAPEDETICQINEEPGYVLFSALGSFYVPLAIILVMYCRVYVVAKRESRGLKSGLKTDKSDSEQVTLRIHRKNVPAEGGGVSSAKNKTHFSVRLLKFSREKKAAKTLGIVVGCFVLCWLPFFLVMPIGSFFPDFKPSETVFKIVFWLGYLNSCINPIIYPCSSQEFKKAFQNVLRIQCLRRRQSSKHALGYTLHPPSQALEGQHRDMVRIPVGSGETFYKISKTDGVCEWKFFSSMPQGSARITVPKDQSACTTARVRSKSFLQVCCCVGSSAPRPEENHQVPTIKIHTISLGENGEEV
# [2] = Inhibition of [3H]- LSD binding to 5-HT5 receptor expressed in CHO cells; format: cell-based
# [3] = target: Serotonin 3 (5-HT3) receptor; test: Inhibition of [3H]GR-65630 binding to rabbit ileum muscularis 5-HT3 receptor; format: tissue-based, Oryctolagus cuniculus
# [4] = target: 5-hydroxytryptamine receptor 4 (Cavia porcellus, UniProt O70528); test: Inhibition of [3H]- GR-113808 binding to guinea pig striatum 5-HT4 receptor; format: tissue-based
# [5] = target: T2, 5-hydroxytryptamine receptor 6 (Rattus norvegicus, UniProt P31388); test: Inhibition of [3H]5-HT binding to rat 5-HT6 receptor
# [6] = target: T2, 5-hydroxytryptamine receptor 6; test: Inhibition of [3H]-5-HT binding to rat 5-HT6 receptor
# T2 sequence (P31388 whole entry): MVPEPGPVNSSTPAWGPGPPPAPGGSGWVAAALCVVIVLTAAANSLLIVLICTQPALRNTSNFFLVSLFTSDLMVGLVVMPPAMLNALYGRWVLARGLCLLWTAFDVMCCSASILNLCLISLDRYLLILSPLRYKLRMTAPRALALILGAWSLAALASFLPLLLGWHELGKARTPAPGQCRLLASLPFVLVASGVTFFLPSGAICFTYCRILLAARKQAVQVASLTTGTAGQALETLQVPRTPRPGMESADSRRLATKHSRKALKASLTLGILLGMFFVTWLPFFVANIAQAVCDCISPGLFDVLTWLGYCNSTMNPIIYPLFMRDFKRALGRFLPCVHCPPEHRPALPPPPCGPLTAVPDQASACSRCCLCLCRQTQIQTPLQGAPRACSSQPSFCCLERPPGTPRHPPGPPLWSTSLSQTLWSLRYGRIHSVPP
# 5-hydroxytryptamine receptor 4, sequence (O70528 whole entry): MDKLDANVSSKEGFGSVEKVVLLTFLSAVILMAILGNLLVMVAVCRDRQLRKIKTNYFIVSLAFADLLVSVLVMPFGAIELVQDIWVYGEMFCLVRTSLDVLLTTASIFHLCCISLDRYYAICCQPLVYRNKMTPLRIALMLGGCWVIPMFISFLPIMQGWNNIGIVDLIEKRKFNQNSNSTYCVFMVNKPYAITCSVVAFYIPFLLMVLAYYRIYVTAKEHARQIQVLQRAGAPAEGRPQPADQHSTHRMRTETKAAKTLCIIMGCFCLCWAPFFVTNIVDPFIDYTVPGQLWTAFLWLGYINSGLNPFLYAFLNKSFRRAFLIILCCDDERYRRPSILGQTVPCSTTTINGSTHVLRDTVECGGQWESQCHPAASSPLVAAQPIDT
Compound,Ki [1] [nM],Ki [2] [nM],IC50 [3] [nM],IC50 [4] [nM],IC50 [5] [nM],Ki [6] [nM]
COc1cccc(OC)c1-c1cccc2c1CC[C@H](N(C)C)C2,3670,65,> 1000,> 1000,> 1000,
CCCN(CCC)[C@H]1CCc2c(cccc2-c2c(OC)cccc2OC)C1,> 1000,,,,,> 900
